Results on 8 compounds are retold here after patent US20260226067A1, “MODULATORS OF TRPML, THEIR COMPOSITIONS AND METHODS OF USE” (Caraway Therapuetics, Inc., priority 2023, published 2026).

By EC50 is commonly meant the concentration at which the effect is half-maximal.

The target in experiment [1] is T1, Human TRPML2 (Homo sapiens, UniProt Q8IZK6).
T1 construct: expressed in transfected cells
T1 sequence (Q8IZK6 1-566): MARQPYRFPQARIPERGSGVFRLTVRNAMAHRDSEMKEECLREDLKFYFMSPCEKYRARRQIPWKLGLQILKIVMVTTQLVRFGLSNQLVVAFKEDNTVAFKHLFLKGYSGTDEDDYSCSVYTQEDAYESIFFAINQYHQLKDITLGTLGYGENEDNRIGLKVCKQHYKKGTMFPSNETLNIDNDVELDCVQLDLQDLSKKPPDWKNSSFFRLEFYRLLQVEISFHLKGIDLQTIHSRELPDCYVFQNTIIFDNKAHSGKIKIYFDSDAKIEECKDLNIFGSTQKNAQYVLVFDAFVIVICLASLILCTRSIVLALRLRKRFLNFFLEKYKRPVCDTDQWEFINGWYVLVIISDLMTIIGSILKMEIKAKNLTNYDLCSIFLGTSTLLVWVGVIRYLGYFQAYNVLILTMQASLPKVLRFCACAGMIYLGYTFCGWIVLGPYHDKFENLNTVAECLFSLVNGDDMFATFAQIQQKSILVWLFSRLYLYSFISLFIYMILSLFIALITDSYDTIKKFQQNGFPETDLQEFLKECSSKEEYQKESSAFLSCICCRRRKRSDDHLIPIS
In words: Fluorescent TRPML2 assay (as for TRPML1). In kind it is cell-based. The conditions noted are these: as TRPML1 assay with TRPML2 subtype; read-out: Human TRPML 2 EC50. The method, then:
(§1) HEK-293 Trex cells were stably transfected with a construct consisting of the human coding sequence for TRPML1 cloned into the tet-inducible plasmid pCDNA5 T/O. Mutations were introduced into the TRPML1 sequence to facilitate expression on the cell surface (Silvia Vergarajauregui, Rosa Puertollano Traffic. 2006 March; 7(3): 337-353). Briefly, the cells are cultured in 150 mm round tissue culture dishes containing 20 mL of media. The day before the assay the cells are rinsed with DPBS-Ca-Mg and then treated briefly with Trypsin-EDTA. The Trypsin-EDTA is diluted with growth media, and cells are counted. 38×10^6 cells are re-plated into 150 mm round tissue culture dishes in media containing 0.5 ug/mL doxycycline to induce expression of hTRPML1.
(§2) The day of the experiment cells are lifted from the plates as above and collected by centrifugation. The cells are then suspended in dye loading buffer consisting of Ringer's solution supplemented with 0.1% Pluronic Acid and 1 micromolar Fluo4-AM dye. Cells are loaded for ~60 minutes in the dark with occasional mixing. The cells are collected by centrifugation, the loading media aspirated, and the cells resuspended in 25 mL Ringer's solution and incubated ~60 minutes in the dark. The cells are again collected by centrifugation, rinsed in Ringer's Solution and resuspended to 0.2×10^6 cells/mL in modified Ringer's solution containing 10 mM calcium.
(§3) Compounds are dissolved to a concentration of 10 millimolar with DMSO. Compound plates are created by dispensing compounds into 384 well black wall clear bottom plates (Greiner 781091). Positive and negative controls are included on each plate. Typically, different amounts of each compound are tested ranging from 100 nanoMoles (20 micromolar final concentration) decreasing in half-log steps to 31 picoMoles (6 nanomolar final concentration). Each concentration is typically tested in triplicate.
(§4) 50 microliters of dye-loaded cells are dispensed into each well of the compound assay plate created above. The fluorescence in each well is then determined with an excitation wavelength of 480 nm and an emission wavelength of 540 nm using either a Molecular Devices SpectraMax multimode plate reader or a Hamamatsu FDSS/uCell plate imager.
(§5) The resulting fluorescence for each well is exported as an ascii file and loaded into our LIMS for analysis. The percent activity of each compound at each concentration is determined by comparison to the positive and negative control wells included in each plate.
(§6) Assays for TRPML2 and TRPML3 were performed as above for TRPML1, by substituting the appropriate TRPML2 or TRPML3 subtype for the TRPML1.
(§7) EC50 values were calculated using a non-linear regression of Prism. In the table, “A” indicates an EC50 of less than 100 nM, “B” indicates an EC50 range from 100 nM to 500 nM; “C” indicates an EC50 range from 500 nM to 2 μM; and “D” indicates an EC50 greater than 2 μM.

In experiment [2] the target is T2, Human TRPML3 (Homo sapiens, UniProt Q8TDD5).
T2 construct: expressed in transfected cells
T2 sequence (Q8TDD5 1-553): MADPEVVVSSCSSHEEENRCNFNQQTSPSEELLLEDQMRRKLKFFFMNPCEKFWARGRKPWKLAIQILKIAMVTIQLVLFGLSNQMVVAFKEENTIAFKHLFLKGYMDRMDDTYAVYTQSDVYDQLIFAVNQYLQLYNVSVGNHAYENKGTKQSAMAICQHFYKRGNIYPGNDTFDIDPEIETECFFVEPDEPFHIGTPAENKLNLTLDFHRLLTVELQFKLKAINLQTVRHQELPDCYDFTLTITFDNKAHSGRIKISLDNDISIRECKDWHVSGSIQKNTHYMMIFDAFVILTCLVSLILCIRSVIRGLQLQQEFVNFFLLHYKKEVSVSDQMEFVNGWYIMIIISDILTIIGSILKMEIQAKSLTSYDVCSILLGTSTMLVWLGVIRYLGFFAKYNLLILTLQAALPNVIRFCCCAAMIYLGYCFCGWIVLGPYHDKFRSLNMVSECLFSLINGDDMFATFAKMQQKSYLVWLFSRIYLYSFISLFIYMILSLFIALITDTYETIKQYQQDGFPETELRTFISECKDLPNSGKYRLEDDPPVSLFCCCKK
Nature of the experiment: Fluorescent TRPML3 assay (as for TRPML1). The conditions noted are these: as TRPML1 assay with TRPML3 subtype; read-out: Human TRPML 3 EC50. The class given is cell-based. Here is the method:
as §1, §2, §3, §4, §5, §6, §7

In experiment [3] the target is human TRPML1 (Homo sapiens, UniProt Q9GZU1). In words: Fluorescent TRPML1 assay (Fluo4-AM calcium fluorescence). The conditions noted are these: HEK-293 Trex cells expressing hTRPML1, Fluo4-AM fluorescence; read-out: Human TRPML 1 EC50. In kind it is cell-based. Here is the method:
as §1, §2, §3, §4, §5, §7

For experiment [4], the system named is TRPMLs. To be noted: background statement; cited from earlier work.

Sequence of human TRPML1 (Q9GZU1 whole entry L15A/L16A/L577A/L578A, form open): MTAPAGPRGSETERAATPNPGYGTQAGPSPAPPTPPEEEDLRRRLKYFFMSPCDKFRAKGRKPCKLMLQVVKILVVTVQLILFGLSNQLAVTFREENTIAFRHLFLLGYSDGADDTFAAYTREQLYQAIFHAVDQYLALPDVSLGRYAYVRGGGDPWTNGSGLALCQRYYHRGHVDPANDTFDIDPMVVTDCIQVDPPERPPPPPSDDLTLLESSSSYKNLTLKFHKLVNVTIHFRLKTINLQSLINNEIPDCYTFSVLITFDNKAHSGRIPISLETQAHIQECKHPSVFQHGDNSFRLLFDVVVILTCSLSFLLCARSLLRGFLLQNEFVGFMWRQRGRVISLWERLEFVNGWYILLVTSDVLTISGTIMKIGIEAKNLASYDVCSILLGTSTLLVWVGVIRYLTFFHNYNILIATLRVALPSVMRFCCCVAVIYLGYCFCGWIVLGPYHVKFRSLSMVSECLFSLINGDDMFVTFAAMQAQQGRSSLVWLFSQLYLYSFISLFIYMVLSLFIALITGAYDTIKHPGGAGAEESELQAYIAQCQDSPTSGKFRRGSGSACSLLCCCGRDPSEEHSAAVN

`C[C@@H]1CN(c2ncnc3c2c(N2CCC2)cn3-c2cc(C#N)ccn2)[C@@H](C)CN1C(=O)c1ccccc1F` [Compound 113, 2-(5-(azetidin-1-yl)-4-((2S,5R)-4-(2-fluorobenzoyl)-2,5-dimethylpiperazin-1-yl)-7H-pyrrolo[2,3-d]pyrimidin-7-yl)isonicotinonitrile]: the concentration for a half-maximal effect (EC50) in experiment [1] was 100 to 500 nM; in experiment [2] it was 500 to 2000 nM; in experiment [3], 100 to 500 nM.

Regarding `C[C@@H]1CN(c2ncnc3c2c(N2CCC2)cn3-c2cc(C#N)ccn2)[C@@H](C)CN1C(=O)c1cccc(F)c1` [Compound 114, 2-(5-(azetidin-1-yl)-4-((2S,5R)-4-(3-fluorobenzoyl)-2,5-dimethylpiperazin-1-yl)-7H-pyrrolo[2,3-d]pyrimidin-7-yl)isonicotinonitrile], the EC50 in experiment [1], in experiment [2] and in experiment [3] was 100 to 500 nM in each case.

As to `C[C@@H]1CN(c2ncnc3c2c(-c2ccccc2)cn3-c2cc(C#N)ccn2)[C@@H](C)CN1C(=O)c1ccccc1` [Compound 116, 2-(4-((2S,5R)-4-benzoyl-2,5-dimethylpiperazin-1-yl)-5-phenyl-7H-pyrrolo[2,3-d]pyrimidin-7-yl)isonicotinonitrile], the concentration giving a half-maximal response (EC50) in experiment [1] was 500 to 2000 nM; in experiment [2], 100 to 500 nM; in experiment [3] it was less than 100 nM.

Regarding `COc1ccccc1C(=O)N1C[C@H](C)N(c2ncnc3c2c(-c2ccccc2F)cn3-c2cc(C#N)ccn2)C[C@H]1C` [Compound 119, 2-(5-(2-fluorophenyl)-4-((2S,5R)-4-(2-methoxybenzoyl)-2,5-dimethylpiperazin-1-yl)-7H-pyrrolo[2,3-d]pyrimidin-7-yl)isonicotinonitrile], the EC50 in experiment [1] was 100 to 500 nM; in experiment [2] it was less than 100 nM; in experiment [3], less than 100 nM.

`CC(C)c1ccccc1C(=O)N1C[C@H](C)N(c2ncnc3c2c(-c2ccccc2F)cn3-c2cc(C#N)ccn2)C[C@H]1C` [Compound 120, 2-(5-(2-fluorophenyl)-4-((2S,5R)-4-(2-isopropylbenzoyl)-2,5-dimethylpiperazin-1-yl)-7H-pyrrolo[2,3-d]pyrimidin-7-yl)isonicotinonitrile]: the EC50 in experiment [1] is 100 to 500 nM; in experiment [2], less than 100 nM; in experiment [3], less than 100 nM.

Consider `C[C@@H]1CN(c2ncnc3c2c(-c2ccccc2F)cn3-c2cc(C#N)ccn2)[C@@H](C)CN1C(=O)c1ccccc1N(C)C` [Compound 121, 2-(4-((2S,5R)-4-(2-(dimethylamino)benzoyl)-2,5-dimethylpiperazin-1-yl)-5-(2-fluorophenyl)-7H-pyrrolo[2,3-d]pyrimidin-7-yl)isonicotinonitrile], for which the EC50 is 100 to 500 nM in experiment [1], less than 100 nM in experiment [2] and less than 100 nM in experiment [3].

In the case of `C[C@H]1CN(C(=O)c2ccccc2)CCN1c1ncnc2c1c(-c1ccccc1F)cn2-c1cc(C#N)ccn1` [Compound 122, (S)-2-(4-(4-benzoyl-2-methylpiperazin-1-yl)-5-(2-fluorophenyl)-7H-pyrrolo[2,3-d]pyrimidin-7-yl)isonicotinonitrile], the results for the EC50 in experiment [1], in experiment [2] and in experiment [3] were 500 to 2000 nM, 100 to 500 nM and less than 100 nM, respectively.

With `CC1CC(C)(C)N(C(=O)CN2C(=O)c3ccccc3C2=O)c2ccccc21` (stereo not shown) [ML-SA1], the “concentration needed to effectively activate TRPMLs” value in experiment [4] was ~ 10 μM.
